Results: US20100285959A1, “HERBICIDAL MIXTURES” (priority 2006, published 2010)

How the values were obtained:
[1] = test system: corn (ZEAMD); assay: Test 28 greenhouse, post- and preemergence; format: in vivo, Zea mays ssp. indentata; settings: 26 DAA
Experimental: (§1) A greenhouse test was conducted to evaluate the effects on the plant species corn (ZEAMD, Zea mays ssp. indentata), sorghum (SORVU, Sorghum vulgare L.), dry-seeded rice (ORYSA, Oryza sativa L.), wheat (TRZAW, Triticum aestivum L.), ivyleaf morningglory (IPOHE, Ipomoea hederacea (L.) JACQ.), and barnyardgrass (ECHCG, Echinochloa crus-galli (L.) P. BEAUV.), of mixtures of Compound 2 with isoxadifen-ethyl. Corn, sorghum, rice, wheat, ivyleaf morningglory and barnyardgrass seeds were planted in RediEarth, a commercial potting medium. […] Corn plants were treated postemergence at the V2 growth stage, and sorghum, rice, wheat, ivyleaf morningglory, and barnyardgrass plants were treated postemergence at the 3-leaf stage. […] Each treatment was replicated three times. […] Plants were watered as needed.

[2] = test system: sorghum (SORVU); assay: Test 28 greenhouse, postemergence; format: in vivo, Sorghum vulgare; settings: 26 DAA
Experimental: as §1

[3] = test system: dry-seeded rice (ORYSA); assay: Test 28 greenhouse, postemergence; format: in vivo, Oryza sativa; settings: 26 DAA
Experimental: as §1

[4] = test system: wheat (TRZAW); assay: Test 28 greenhouse, post- and preemergence; format: in vivo, Triticum aestivum; settings: 26 DAA
Experimental: as §1

[5] = test system: ivyleaf morningglory (IPOHE); assay: Test 28 greenhouse, postemergence; format: in vivo, Ipomoea hederacea; settings: 26 DAA
Experimental: as §1

[6] = test system: barnyardgrass (ECHCG); assay: Test 28 greenhouse, postemergence; format: in vivo, Echinochloa crus-galli; settings: 26 DAA
Experimental: as §1

[7] = test system: ducksalad (HETLI); assay: Test 32 greenhouse, simulated flooded rice culture; format: in vivo, Heteranthera limosa; set-up: scale not given here; settings: postemergence to flood, 21 DAA
Experimental: (§2) A greenhouse trial was conducted to evaluate the effects of Compound 1 and isoxadifen-ethyl at different ratios in simulated flooded rice culture. Plastic pots (11-cm diameter) were partially filled with non-sterilized Tama silt loam soil containing a 15:57:28 ratio of sand, silt and clay and 2.9% organic matter. Seeds of Heteranthera limosa (ducksalad; HETLI), Cyperus difformis (smallflower umbrella sedge; CYPDI), one stand of Echinochloa crus-galli (barnyardgrass; ECHCG), and one stand of four rice seedlings (Oryza sativa cv. ‘M202’; ORYSA) were planted into a single 11-cm diameter pot for each rate and mixture of rates. To obtain this planting, C. difformis and H. limosa seeds were planted separately on the surface soil layer at particular locations within each pot. Water levels were brought to a puddled condition above the soil surface directly after planting. E. crus-galli and rice seeds were planted in cavity trays in the silt loam soil and transplanted at the 1.5 and 2.0 leaf stage, respectively. E. crus-galli and rice plants were transplanted to about 2-cm depth by transferring plugs from the cavity trays. Plantings were sequential so that these plant species all reached the 2.0- to 2.5-leaf stage in the 11-cm diameter pot at time of treatment. Plantings were established and maintained in a greenhouse with day and night temperatures of about 29.5 and 26.7° C. respectively; supplemental balanced lighting was provided to maintain a 16-hour photoperiod. Pots were fertilized periodically with a 200 ppm solution of commercial Scotts Peters® Professional® General Purpose 20-20-20 Water Soluble Fertilizer, amended to 10 ppm with a commercial iron-chelate micronutrient fertilizer. The solution was supplied at time of watering via a liquid fertilizer injector.
(§3) At treatment time, test pots were flooded to 3 cm above the soil surface and maintained at that water depth for the duration of the test. Chemical treatments were formulated in acetone and applied directly to the paddy water (i.e., postemergence to flood). Make-up volumes of acetone were added to ensure that all pots were treated with a consistent volume. Test pots were maintained in the greenhouse. A randomized complete block design was employed. Five replicates of each treatment, alone and in mixture, were used. Each species was visually evaluated for treatment effects by comparing those treated to untreated controls and rated for plant response after 21 days.

[8] = test system: smallflower umbrella sedge (CYPDI); assay: Test 32 greenhouse, simulated flooded rice culture; format: in vivo, Cyperus difformis; settings: postemergence to flood, 21 DAA
Experimental: as §2, §3

[9] = test system: barnyardgrass (ECHCG); assay: Test 32 greenhouse, simulated flooded rice culture; format: in vivo, Echinochloa crus-galli; set-up: scale not given here; settings: postemergence to flood, 21 DAA
Experimental: as §2, §3

[10] = test system: rice (ORYSA); assay: Test 32 greenhouse, simulated flooded rice culture; format: in vivo, Oryza sativa; settings: postemergence to flood, 21 DAA
Experimental: as §2, §3

[11] = postemergence, Isoxadifen-ethyl 64 g a.i./ha
[12] = postemergence, Isoxadifen-ethyl 128 g a.i./ha
[13] = postemergence, Isoxadifen-ethyl 256 g a.i./ha
[14] = postemergence, Isoxadifen-ethyl 512 g a.i./ha
[15] = postemergence, Isoxadifen-ethyl 1024 g a.i./ha
[16] = preemergence, Isoxadifen-ethyl 64 g a.i./ha
[17] = preemergence, Isoxadifen-ethyl 128 g a.i./ha
[18] = preemergence, Isoxadifen-ethyl 256 g a.i./ha
[19] = preemergence, Isoxadifen-ethyl 512 g a.i./ha
[20] = preemergence, Isoxadifen-ethyl 1024 g a.i./ha
[21] = Isoxadifen-ethyl 1024 g a.i./ha
[22] = Isoxadifen-ethyl 31.25 g a.i./ha
[23] = Isoxadifen-ethyl 62.5 g a.i./ha
[24] = Isoxadifen-ethyl 1000 g a.i./ha
[25] = Isoxadifen-ethyl 1500 g a.i./ha

CCOC(=O)C1=NOC(c2ccccc2)(c2ccccc2)C1 [Isoxadifen-ethyl]
ZEAMD Obs [1, 11]: 0 | ZEAMD Obs [1, 12]: 0 | ZEAMD Obs [1, 13]: 0 | ZEAMD Obs [1, 14]: 0 | ZEAMD Obs [1, 15]: 0 | ZEAMD Obs [1, 16]: 0 | ZEAMD Obs [1, 17]: 0 | ZEAMD Obs [1, 18]: 0 | ZEAMD Obs [1, 19]: 0 | ZEAMD Obs [1, 20]: 0 | SORVU Obs ([2]; Isoxadifen-ethyl 64 g a.i./ha): 0% | SORVU Obs ([2]; Isoxadifen-ethyl 128 g a.i./ha): 0% | SORVU Obs ([2]; Isoxadifen-ethyl 256 g a.i./ha): 0% | SORVU Obs ([2]; Isoxadifen-ethyl 512 g a.i./ha): 0% | SORVU Obs [2, 21]: 0% | ORYSA Obs ([3]; Isoxadifen-ethyl 64 g a.i./ha): 0 | ORYSA Obs ([3]; Isoxadifen-ethyl 128 g a.i./ha): 0 | ORYSA Obs ([3]; Isoxadifen-ethyl 256 g a.i./ha): 0 | ORYSA Obs ([3]; Isoxadifen-ethyl 512 g a.i./ha): 0 | ORYSA Obs [3, 21]: 0 | TRZAW Obs [4, 11]: 0% | TRZAW Obs [4, 12]: 0% | TRZAW Obs [4, 13]: 0% | TRZAW Obs [4, 14]: 0% | TRZAW Obs [4, 15]: 0% | TRZAW Obs [4, 16]: 0% | TRZAW Obs [4, 17]: 0% | TRZAW Obs [4, 18]: 0% | TRZAW Obs [4, 19]: 0% | TRZAW Obs [4, 20]: 0% | IPOHE Obs ([5]; Isoxadifen-ethyl 64 g a.i./ha): 0 | IPOHE Obs ([5]; Isoxadifen-ethyl 128 g a.i./ha): 0 | IPOHE Obs ([5]; Isoxadifen-ethyl 256 g a.i./ha): 0 | IPOHE Obs ([5]; Isoxadifen-ethyl 512 g a.i./ha): 0 | IPOHE Obs [5, 21]: 0 | ECHCG Obs ([6]; Isoxadifen-ethyl 64 g a.i./ha): 0 | ECHCG Obs ([6]; Isoxadifen-ethyl 128 g a.i./ha): 0 | ECHCG Obs ([6]; Isoxadifen-ethyl 256 g a.i./ha): 0 | ECHCG Obs ([6]; Isoxadifen-ethyl 512 g a.i./ha): 0 | ECHCG Obs [6, 21]: 0 | HETLI Obs [7, 22]: 10 | HETLI Obs [7, 23]: 29 | HETLI Obs ([7]; Isoxadifen-ethyl 125 g a.i./ha): 35 | HETLI Obs ([7]; Isoxadifen-ethyl 250 g a.i./ha): 19 | HETLI Obs ([7]; Isoxadifen-ethyl 500 g a.i./ha): 23 | HETLI Obs [7, 24]: 25 | HETLI Obs [7, 25]: 36 | CYPDI Obs [8, 22]: 28 | CYPDI Obs [8, 23]: 24 | CYPDI Obs ([8]; Isoxadifen-ethyl 125 g a.i./ha): 84 | CYPDI Obs ([8]; Isoxadifen-ethyl 250 g a.i./ha): 59 | CYPDI Obs ([8]; Isoxadifen-ethyl 500 g a.i./ha): 49 | CYPDI Obs [8, 24]: 53 | CYPDI Obs [8, 25]: 59 | ECHCG Obs [9, 22]: 4 | ECHCG Obs [9, 23]: 9 | ECHCG Obs ([9]; Isoxadifen-ethyl 125 g a.i./ha): 15 | ECHCG Obs ([9]; Isoxadifen-ethyl 250 g a.i./ha): 10 | ECHCG Obs ([9]; Isoxadifen-ethyl 500 g a.i./ha): 5 | ECHCG Obs [9, 24]: 8 | ECHCG Obs [9, 25]: 9 | ORYSA Obs [10, 22]: 2% | ORYSA Obs [10, 23]: 5% | ORYSA Obs ([10]; Isoxadifen-ethyl 125 g a.i./ha): 11% | ORYSA Obs ([10]; Isoxadifen-ethyl 250 g a.i./ha): 7% | ORYSA Obs ([10]; Isoxadifen-ethyl 500 g a.i./ha): 5% | ORYSA Obs [10, 24]: 5% | ORYSA Obs [10, 25]: 10%
